Where a SMILES comes first, the peptide text is derived from it. The star is where a group is joined. Cbz = O=C(OCc1ccccc1)*
Experiments:
Format in all cases: cell-based
[1] = molecular target: T1, DDR1 (Homo sapiens, UniProt Q08345); experiment: Experiments with inhibitors of the ubiquitin-proteasome system (DDR1 Western blot); design: endogenous in cells; host or cells: unnamed tumor cells; conditions: MG132 10 uM or MLN4924 1 uM for 6 hours, then TPD12140 100 nM 18 h
Protocol: Tumor cells were inoculated into 6-well plates with 1-3×10^5 cells per well, and the cell growth status was observed the next day. When the cells grew to about 80% confluence, the proteasome inhibitor MG132 (working concentration 10 uM) or the protein ubiquitination inhibitor MLN4924 (working concentration 1 uM) was added to the cell culture medium of the experimental group, and an equal volume of DMSO was added to the control group, and the incubation was continued for 6 hours. The medium in the well plates was discarded, washed twice with PBS, fresh medium was added, and compound TPD12140 (working concentration 100 nM) or an equal volume of DMSO was added to each group of cells, and the incubation was continued for 18 h. Western Blot was performed to detect the expression of DDR1 protein (same operation as above). The experiments were repeated three times or more, and the experimental data were statistically analyzed using GraphPad Prism software.

[2] = molecular target: T1, DDR1; experiment: Degradation of DDR1 in tumor cell MKN45 (Western blot); design: The degradation activity of the compounds against DDR1 in the MKN45 cell line; endogenous in cells; host or cells: MKN45; conditions: MKN-45, maximum degradation percentage, MKN45 cells, 24 hours
In short: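 MKN45 gastric cancer cells were treated with compound dilutions for 24 h at a final DMSO of 0.5%; the 2 mM–200 nM series is the added solution, not the final concentration. DDR1 in lysates was quantified by Western blot, normalized to GAPDH and expressed relative to blank control, giving DC50 and Dmax.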

[3] = system: MKN45; experiment: Growth inhibition of gastric cancer cells MKN45 (CCK-8); conditions: Homo sapiens, MKN-45, half inhibitory concentration, 72 hours
In short: (§1)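 MKN45 or SNU5 cells in 96-well plates were treated with compound dilution series in triplicate for 72 h. Viability was read by CCK-8 (1 h, absorbance 450 nm), and inhibition was calculated against blank and medium-only controls. IC50 came from concentration-response curves.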

[4] = system: SNU5; experiment: Growth inhibition of gastric cancer cells SNU5 (CCK-8); conditions: Homo sapiens, SNU-5, half inhibitory concentration, 72 hours
In short: as §1

T1 sequence (Q08345 19-913): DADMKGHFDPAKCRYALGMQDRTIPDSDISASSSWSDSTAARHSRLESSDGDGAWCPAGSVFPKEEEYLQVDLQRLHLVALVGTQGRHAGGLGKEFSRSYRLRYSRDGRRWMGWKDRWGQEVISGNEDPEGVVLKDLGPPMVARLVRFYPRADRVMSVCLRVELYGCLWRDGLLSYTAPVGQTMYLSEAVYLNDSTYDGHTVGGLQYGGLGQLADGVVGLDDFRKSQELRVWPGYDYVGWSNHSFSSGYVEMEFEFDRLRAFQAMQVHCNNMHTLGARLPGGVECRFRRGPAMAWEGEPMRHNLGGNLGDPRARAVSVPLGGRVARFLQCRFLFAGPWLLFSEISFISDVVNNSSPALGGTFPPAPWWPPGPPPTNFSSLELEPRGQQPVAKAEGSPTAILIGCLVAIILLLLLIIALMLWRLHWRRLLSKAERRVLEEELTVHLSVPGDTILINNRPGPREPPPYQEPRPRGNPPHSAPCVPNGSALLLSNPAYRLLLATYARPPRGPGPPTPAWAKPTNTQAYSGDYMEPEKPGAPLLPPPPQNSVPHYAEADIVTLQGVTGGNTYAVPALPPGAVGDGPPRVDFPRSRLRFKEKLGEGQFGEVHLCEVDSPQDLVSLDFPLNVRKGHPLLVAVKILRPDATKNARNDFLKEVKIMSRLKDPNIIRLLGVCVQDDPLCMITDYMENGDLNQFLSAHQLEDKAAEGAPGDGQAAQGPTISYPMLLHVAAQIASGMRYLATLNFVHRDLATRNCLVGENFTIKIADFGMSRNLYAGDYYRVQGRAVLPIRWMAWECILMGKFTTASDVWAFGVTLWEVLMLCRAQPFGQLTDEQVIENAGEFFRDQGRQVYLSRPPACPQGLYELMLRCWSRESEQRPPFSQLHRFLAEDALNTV

Row | Dmax [2] [%] | IC50 [3] [µM] | IC50 [4] [µM] | Structure (SMILES) | effect of inhibitor on degradation of DDR1 by TPD12140 [1]
1 | – | – | – | CC(C)C[C@@H](C=O)NC(=O)[C@H](CC(C)C)NC(=O)[C@H](CC(C)C)NC(=O)OCc1ccccc1 [MG132] (Cbz-Leu-Leu-Leu-aldehyde) | can inhibit the degradation of the compounds
2 | 65 to 75 | 1 to 3 | 0.5 to 1 | N#Cc1cccc(-c2ccc(=O)n(Cc3cccc(-c4ncc(OCC5CCN(CCC(=O)Nc6cccc7c6CN(C6CCC(=O)NC6=O)C7=O)CC5)cn4)c3)n2)c1 (stereo not shown) [TPD10013] | –
3 | 75 to 85 | 0.1 to 0.5 | ≤ 0.1 | COc1cc2c(Oc3ccc(NC(=O)C4(C(=O)Nc5ccc(F)cc5)CC4)cc3)ccnc2cc1N1CCC(N2CC(C(=O)N[C@H](C(=O)N3C[C@H](O)C[C@H]3C(=O)NCc3ccc(-c4scnc4C)cc3)C(C)(C)C)C2)CC1 [TPD5432] | –
4 | 65 to 75 | ≤ 0.1 | ≤ 0.1 | COc1cc2c(Oc3ccc(NC(=O)C4(C(=O)Nc5ccc(F)cc5)CC4)cc3)ccnc2cc1N1CCC(CN2CCN(CCNc3cc4c(cn3)CN(C3CCC(=O)NC3=O)C4=O)CC2)CC1 (stereo not shown) [TPD12009] | –
5 | 65 to 75 | 0.5 to 1 | 0.1 to 0.5 | Cc1ncsc1-c1ccc(CNC(=O)[C@@H]2C[C@@H](O)CN2C(=O)[C@@H](NC(=O)CCN2CCC(COc3cnc(-c4cccc(Cn5nc(-c6cccc(C#N)c6)ccc5=O)c4)nc3)CC2)C(C)(C)C)cc1 [TPD10001] | –
6 | 65 to 75 | 1 to 3 | 1 to 3 | COc1cc2c(Oc3ccc(NC(=O)C4(C(=O)Nc5ccc(F)cc5)CC4)cc3)ccnc2cc1N1CCC(C(=O)NCC(=O)N[C@H](C(=O)N2C[C@H](O)C[C@H]2C(=O)NCc2ccc(-c3scnc3C)cc2)C(C)(C)C)CC1 [TPD5452] | –
7 | 65 to 75 | 0.1 to 0.5 | 0.1 to 0.5 | O=C1CCC(N2C(=O)c3ccc(N4CCN(CCC5CCN(CCNC(=O)c6ccc(-c7cnc8ncc(Cc9ccc%10ncccc%10c9)n8n7)cc6F)CC5)CC4)cc3C2=O)C(=O)N1 (stereo not shown) [TPD7022] | –
8 | 65 to 75 | 0.1 to 0.5 | 0.1 to 0.5 | COc1cc2c(Oc3ccc(NC(=O)C4(C(=O)Nc5ccc(F)cc5)CC4)cc3)ccnc2cc1COCCN1CCC(CCNc2cccc3c2C(=O)N(C2CCC(=O)NC2=O)C3=O)CC1 (stereo not shown) [TPD5313] | –
9 | 65 to 75 | 0.1 to 0.5 | 0.1 to 0.5 | COc1cc2c(Oc3ccc(NC(=O)C4(C(=O)Nc5ccc(F)cc5)CC4)cc3)ccnc2cc1N1CCC(C(=O)N[C@H](C(=O)N2C[C@H](O)C[C@H]2C(=O)NCc2ccc(-c3scnc3C)cc2)C(C)(C)C)CC1 [TPD5409] | –
10 | 65 to 75 | 0.1 to 0.5 | 0.1 to 0.5 | COc1cc2c(Oc3ccc(NC(=O)C4(C(=O)Nc5ccc(F)cc5)CC4)cc3)ccnc2cc1NCCC(=O)N[C@H](C(=O)N1C[C@H](O)C[C@H]1C(=O)NCc1ccc(-c2scnc2C)cc1)C(C)(C)C [TPD5415] | –
11 | > 85 | 1 to 3 | 0.1 to 0.5 | COc1cc2c(Oc3ccc(NC(=O)C4(C(=O)Nc5ccc(F)cc5)CC4)cc3)ccnc2cc1N1CCC(N2CCN(C(=O)CCCCC(=O)N[C@H](C(=O)N3C[C@H](O)C[C@H]3C(=O)NCc3ccc(-c4scnc4C)cc3)C(C)(C)C)CC2)CC1 [TPD5494] | –
12 | 65 to 75 | 1 to 3 | 0.5 to 1 | COc1cc2c(Oc3ccc(NC(=O)C4(C(=O)Nc5ccc(F)cc5)CC4)cc3)ccnc2cc1N1CCC(N2CCC(C(=O)N[C@H](C(=O)N3C[C@H](O)C[C@H]3C(=O)NCc3ccc(-c4scnc4C)cc3)C(C)(C)C)CC2)CC1 [TPD5420] | –
13 | 65 to 75 | 0.1 to 0.5 | 0.1 to 0.5 | COc1cc2c(Oc3ccc(NC(=O)C4(C(=O)Nc5ccc(F)cc5)CC4)cc3)ccnc2cc1NC(=O)CCN1CCC(CN2CCN(c3ccc4c(c3)C(=O)N(C3CCC(=O)NC3=O)C4=O)CC2)CC1 (stereo not shown) [TPD5734] | –
14 | 75 to 85 | 0.1 to 0.5 | 0.1 to 0.5 | COc1cc2c(Oc3ccc(NC(=O)C4(C(=O)Nc5ccc(F)cc5)CC4)cc3)ccnc2cc1N1CCC(OCC(=O)N[C@H](C(=O)N2C[C@H](O)C[C@H]2C(=O)NCc2ccc(-c3scnc3C)cc2)C(C)(C)C)CC1 [TPD5411] | –
15 | 65 to 75 | 1 to 3 | 1 to 3 | COc1cc2c(Oc3ccc(NC(=O)C4(C(=O)Nc5ccc(F)cc5)CC4)cc3)ccnc2cc1N1CCC(CN2CC(N[C@H](C(=O)N3C[C@H](O)C[C@H]3C(=O)NCc3ccc(-c4scnc4C)cc3)C(C)(C)C)C2)CC1 [TPD5431] | –
16 | 75 to 85 | 0.1 to 0.5 | 0.1 to 0.5 | COc1cc2c(Oc3ccc(NC(=O)C4(C(=O)Nc5ccc(F)cc5)CC4)cc3)ccnc2cc1N1CCC(OCCC(=O)Nc2ccc3c(c2)C(=O)N(C2CCC(=O)NC2=O)C3=O)CC1 (stereo not shown) [TPD5706] | –
17 | 65 to 75 | 0.5 to 1 | 0.5 to 1 | COc1cc2c(Oc3ccc(NC(=O)C4(C(=O)Nc5ccc(F)cc5)CC4)cc3)ccnc2cc1NC(=O)CC1CCN(C(=O)CN2CCN(c3ccc4c(c3)C(=O)N(C3CCC(=O)NC3=O)C4=O)CC2)CC1 (stereo not shown) [TPD5745] | –
18 | 75 to 85 | ≤ 0.1 | ≤ 0.1 | COc1cc2c(Oc3ccc(NC(=O)C4(C(=O)Nc5ccc(F)cc5)CC4)cc3)ccnc2cc1N1CCN(CCCC(=O)N[C@H](C(=O)N2C[C@H](O)C[C@H]2C(=O)NCc2ccc(-c3scnc3C)cc2)C(C)(C)C)CC1 [TPD5457] | –
19 | 65 to 75 | ≤ 0.1 | ≤ 0.1 | COc1cc2c(Oc3ccc(NC(=O)C4(C(=O)Nc5ccc(F)cc5)CC4)cc3)ccnc2cc1N1CCC(CN2C[C@@H]3C[C@H]2CN3CCC(=O)Nc2ccc3c(c2)CN(C2CCC(=O)NC2=O)C3=O)CC1 (stereo partly shown) [TPD12218] | –
20 | > 85 | 0.1 to 0.5 | 0.5 to 1 | COc1cc2c(Oc3ccc(NC(=O)C4(C(=O)Nc5ccc(F)cc5)CC4)cc3)ccnc2cc1NCC(=O)N1CCC(CN2CCN(c3ccc(NC4CCC(=O)NC4=O)nc3F)CC2)CC1 (stereo not shown) [TPD5774] | –

Row | Structure (SMILES) | Dmax [2] [%] | IC50 [3] [µM] | IC50 [4] [µM] | effect of inhibitor on degradation of DDR1 by TPD12140 [1]
21 | COc1cc2c(Oc3ccc(NC(=O)C4(C(=O)Nc5ccc(F)cc5)CC4)cc3)ccnc2cc1N1CCC(CN2C3CC2CN(CCC#Cc2cccc4c2CN(C2CCC(=O)NC2=O)C4=O)C3)CC1 (stereo not shown) [TPD12234] | 75 to 85 | ≤ 0.1 | ≤ 0.1 | –
22 | COc1cc2c(Oc3ccc(NC(=O)C4(C(=O)Nc5ccc(F)cc5)CC4)cc3)ccnc2c(F)c1N1CCC(CN2C3CC2CN(CCC(=O)Nc2cc4c(cn2)C(=O)N(C2CCC(=O)NC2=O)C4)C3)CC1 (stereo not shown) [TPD12139] | 75 to 85 | ≤ 0.1 | ≤ 0.1 | –
23 | O=C1CCC(N2Cc3cc(C#CCCN4CC5CC(C4)N5CC4CCN(c5cc6nccc(Oc7ccc(NC(=O)C8(C(=O)Nc9ccc(F)cc9)CC8)cc7)c6cc5F)CC4)ccc3C2=O)C(=O)N1 (stereo not shown) [TPD12237] | 65 to 75 | ≤ 0.1 | ≤ 0.1 | –
24 | COc1cc2c(Oc3ccc(NC(=O)C4(C(=O)Nc5ccc(F)cc5)CC4)cc3)ccnc2cc1N1CCC(CN2C3CC2CN(CCC=Cc2cc4c(cn2)C(=O)N(C2CCC(=O)NC2=O)C4)C3)CC1 (stereo not shown) [TPD12238] | 65 to 75 | ≤ 0.1 | ≤ 0.1 | –
25 | O=C1CCC(N2Cc3cc(NC(=O)CCN4CC5CC(C4)N5CC4CCN(c5cc6nccc(Oc7ccc(NC(=O)C8(C(=O)Nc9ccc(F)cc9)CC8)cc7)c6cc5F)CC4)ncc3C2=O)C(=O)N1 (stereo not shown) [TPD12162] | 65 to 75 | ≤ 0.1 | ≤ 0.1 | –
26 | COc1cc2c(Oc3ccc(NC(=O)C4(C(=O)Nc5ccc(F)cc5)CC4)cc3)ccnc2cc1N1CCC(CN2CCC(N3CCN(c4cccc5c4CN(C4CCC(=O)NC4=O)C5=O)CC3)CC2)CC1 (stereo not shown) [TPD5907] | > 85 | ≤ 0.1 | ≤ 0.1 | –
27 | Cc1nc(CCN2CCC(CN3CCN(c4ccc5c(c4)C(=O)N(C4CCC(=O)NC4=O)C5=O)CC3)CC2)cc(Nc2ncc(C(=O)Nc3c(C)cccc3Cl)s2)n1 (stereo not shown) [TPD10051] | > 85 | ≤ 0.1 | 0.5 to 1 | –
28 | COc1cc2c(Oc3ccc(NC(=O)C4(C(=O)Nc5ccc(F)cc5)CC4)cc3)ccnc2cc1N1CCC(CN2CC3CC(C2)N3CCNc2cc3c(cn2)C(=O)N(C2CCC(=O)NC2=O)C3)CC1 (stereo not shown) [TPD12082] | 65 to 75 | 0.1 to 0.5 | ≤ 0.1 | –
29 | COc1cc2c(Oc3ccc(NC(=O)C4(C(=O)Nc5ccc(F)cc5)CC4)cc3)ccnc2cc1N1CCC(CN2C[C@@H]3C[C@H]2CN3CCNc2cc3c(cn2)C(=O)N(C2CCC(=O)NC2=O)C3)CC1 (stereo partly shown) [TPD12096] | 65 to 75 | ≤ 0.1 | ≤ 0.1 | –
30 | COc1cc2c(Oc3ccc(NC(=O)C4(C(=O)Nc5ccc(F)cc5)CC4)cc3)ccnc2cc1N1CCC(CN2C3CC2CN(CCC#Cc2ccc4c(c2)CN(C2CCC(=O)NC2=O)C4=O)C3)CC1 (stereo not shown) [TPD12236] | 75 to 85 | ≤ 0.1 | ≤ 0.1 | –
31 | O=C1CCC(N2Cc3cc(NC(=O)CCN4CC5CC(C4)N5CC4CCN(c5cc6nccc(Oc7ccc(NC(=O)C8(C(=O)Nc9ccc(F)cc9)CC8)cc7)c6cc5F)CC4)ccc3C2=O)C(=O)N1 (stereo not shown) [TPD12215] | 75 to 85 | ≤ 0.1 | ≤ 0.1 | –
